In patent publication US7749539B2, “Polymeric formulations for drug delivery” (Efrat Biopolymers Ltd., priority 2000, dated 2010):

Legend:
[1] = In vitro release of drug combinations from liquid poly(sebacic-ricinoleic ester anhydride); format: physicochemical; settings: for release in combination compared with the drug alone: 1:1 w/w mixture of cisplatin or carboplatin with paclitaxel
From the text: The combination of two or more anticancer agents in the polymer implant was investigated. The release of a combination of drugs from liquid formulations of poly(sebacic-ricinoleic ester anhydride) was studied using a 1:1 w/w mixture of cisplatin or carboplatin with paclitaxel.

[2] = intravenous injection, cited from earlier work
[3] = Release of peptides from liquid poly(SA-RA) 30:70; format: physicochemical; settings: 200 mg in 800 mg poly(SA-RA) 30:70, phosphate buffer pH7.4, 37°C
Method: Insulin powder (200 mg) was mixed in liquid poly(SA-RA) 30:70 (800 mg) at room temperature. The uniform formulation was added in buffer solution (100 mg in 50 ml phosphate buffer pH7.4 at 37° C.) and the release of insulin to the solution was determined by HPLC. A constant release of insulin for more than 30 days was obtained.

Compound: N.N.O=C([O-])C1(C(=O)[O-])CCC1.[Pt+2] [carboplatin]
- release in combination compared with the drug alone [1]: slower

Compound: N.N.[Cl][Pt][Cl] [cisplatin]
- release in combination compared with the drug alone [1]: slower

Compound: CC(=O)O[C@H]1C(=O)[C@@]2(C)[C@H]([C@H](OC(=O)c3ccccc3)[C@]3(O)C[C@H](OC(=O)[C@H](O)[C@@H](NC(=O)c4ccccc4)c4ccccc4)C(C)=C1C3(C)C)[C@]1(OC(C)=O)CO[C@@H]1C[C@@H]2O [paclitaxel]
- maximum tolerated dose (MTD) ([2]; female SPF C3H/HeNcrj mice): 26 mg/kg
- dose at which death due to toxicity was observed ([2]; mice): 30 mg/kg
- release in combination compared with the drug alone [1]: slightly enhanced

Compound: Insulin: Insulin powder mixed in liquid poly(SA-RA) 30:70
- duration of constant release [3]: more than 30 days

Compound: rapamycine
- release of co-incorporated drug from the device ([1]; incorporated along with paclitaxel or other anticancer agents): released constantly
